Article PMC5705205 (Bioorganic & medicinal chemistry letters, 2017)

How the values were obtained:
[1] = system: quinone reductase 1 (QR1); assay: QR1 induction assay; format: cell-based; conditions: for fold induction at 50 µM: read-out: QR1 IR (induction ratio), induction ratio at a concentration of 50 μM
[2] = target: T1, aromatase (Homo sapiens, UniProt P11511); assay: Aromatase inhibition assay; format: biochemical
T1 sequence (P11511 1-503): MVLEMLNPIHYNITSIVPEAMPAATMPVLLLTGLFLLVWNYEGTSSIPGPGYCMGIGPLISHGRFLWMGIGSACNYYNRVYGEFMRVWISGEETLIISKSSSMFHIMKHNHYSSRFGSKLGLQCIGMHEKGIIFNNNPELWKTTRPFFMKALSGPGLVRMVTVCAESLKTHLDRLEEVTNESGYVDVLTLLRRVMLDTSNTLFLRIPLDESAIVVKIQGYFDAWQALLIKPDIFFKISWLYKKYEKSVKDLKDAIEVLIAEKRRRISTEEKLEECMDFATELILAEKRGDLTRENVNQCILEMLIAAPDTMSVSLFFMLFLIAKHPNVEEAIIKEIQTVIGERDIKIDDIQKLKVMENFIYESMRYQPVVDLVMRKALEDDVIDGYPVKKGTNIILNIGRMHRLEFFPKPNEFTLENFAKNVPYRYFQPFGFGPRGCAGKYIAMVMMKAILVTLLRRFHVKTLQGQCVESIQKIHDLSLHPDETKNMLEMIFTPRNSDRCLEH

SMILES	Anti-aromatase activity (in words) [2]	QR1 induction activity (in words) [1]	other results
O=c1cc(-c2ccc(Br)cc2)oc2ccccc12 [4′-bromoflavone, reference compound]			EC (2-fold activity) ([1]; read-out: QR1 CD (concentration that double the activity)): 0.01 µM
c1ccc(-c2cc3ccccc3[nH]2)cc1 [Compound 1, 2-phenylindole]	only slight activity	very good QR1 induction activity	
c1ccc(C2Cc3ccccc3N2)cc1 (stereo not shown) [Compound 1f, 2-phenylindoline]	did not show significant activity	weak activity	
N#Cc1c(-c2ccccc2)[nH]c2ccccc12 [Compound 2d, 3-cyano-2-phenylindole]			IC50 [2]: 1610 ± 200 nM; inhibition at 50 µM ([2]; read-out: Aromatase % inhibition): 88 ± 1.07%; fold induction at 50 µM [1]: 0.55 ± 0.64
COc1cc(OC)cc(-c2cc3ccccc3[nH]2)c1 [Compound 7]			Fold increase in QR1 induction activity over 1 ([1]; relative to 1): 2 fold
Clc1ccc(-c2cc3ccccc3[nH]2)cc1Cl [Compound 8]		inactive	
Clc1ccccc1-c1cc2ccccc2[nH]1 [Compound 9]			fold induction at 50 µM [1]: < 1.5
Fc1cc(F)cc(-c2cc3ccccc3[nH]2)c1 [Compound 15]		inactive	
CCCCCc1ccc(-c2cc3ccccc3[nH]2)cc1 [Compound 17]		inactive	
Nc1ccc(-c2cc3ccccc3[nH]2)cc1 [Compound 18]		inactive	
CN(C)c1ccc(-c2cc3ccccc3[nH]2)cc1 [Compound 20]		inactive	
c1cncc(-c2cc3ccccc3[nH]2)c1 [Compound 21]		inactive	
c1ccc2[nH]c(-c3ccsc3)cc2c1 [Compound 22]	did not show encouraging activity	inactive	
COc1ccc2ccc(-c3cc4ccccc4[nH]3)cc2c1 [Compound 23]	did not show encouraging activity	inactive	
Cn1c(-c2ccccc2)cc2cc([N+](=O)[O-])ccc21 [Compound 24a]			Fold increase in aromatase activity over free NH derivative 24 ([2]; relative to 24): 2 fold
Cc1ccccc1-c1cc2cc([N+](=O)[O-])ccc2[nH]1 [Compound 25]			fold induction at 50 µM [1]: < 1.5
O=[N+]([O-])c1ccc2[nH]c(-c3ccc(Cl)c(Cl)c3)cc2c1 [Compound 31]	totally destroyed aromatase activity		
Cn1c(-c2ccc(Cl)c(Cl)c2)cc2cc([N+](=O)[O-])ccc21 [Compound 31a]	not active		
c1ccc(-c2nc3ccccc3[nH]2)cc1 [Compound 34, 2-phenylbenzimidazole, reference compound]	not active		
